Some test systems named below: CAKI-1; CCRF-CEM; COLO 205; EKVX; HCT-116; IGROV-1; K562; KM12; M14; M19-MEL; NCI-H522; OVCAR-4; OVCAR-5; SK-MEL-28; SK-MEL-2; SN12C; SW-620; PC-3; T47D.
What all share (assay): NCI tumour cell line growth inhibition, 48 h

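A five-concentration, 48-hour dose response in 96-well plates underlies each endpoint, interpolated linearly between surrounding concentrations. Here, GI50 denotes the concentration required for 50% inhibition of growth.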 Calls of active or inactive are those of the source. Rule as the data show it: active = GI50 up to about 1.1 µM and inactive = higher.

On to `NS(=O)(=O)c1ccc(NC(=O)c2cccc3c(=O)c4ccccc4[nH]c23)cc1`, for which the GI50 is > 100 µM (inactive) in the assay with CAKI-1; 5.85 µM (inactive) with CCRF-CEM; 37.2 µM (inactive) in the assay with COLO 205; > 100 µM (inactive) in the assay on EKVX; 32.4 µM (inactive) in the assay with HCT-116; 78.5 µM (inactive) in the assay with IGROV-1. In addition, the GI50 is 62.2 µM (inactive) in the assay on K562; 22.2 µM (inactive) in the assay on KM12; > 100 µM (inactive) with M14; 73.3 µM (inactive) in the assay with M19-MEL; 3.8 µM (inactive) in the assay on NCI-H522; 29.6 µM (inactive) with OVCAR-4. Further, the GI50 with OVCAR-5 was > 100 µM (inactive); with SK-MEL-28, 54.1 µM (inactive); with SK-MEL-2, 41 µM (inactive); with SN12C, 94.4 µM (inactive); in the assay on SW-620 it was 78.9 µM (inactive).
`CC1(Cl)C(=O)NC(=O)N([C@H]2C[C@H](O)[C@@H](CO)O2)C1N=[N+]=[N-]` (stereo partly drawn): the GI50 in the assay with CAKI-1, in the assay on CCRF-CEM, in the assay with COLO 205, in the assay with EKVX, in the assay on HCT-116 and with IGROV-1 was > 100 µM (inactive) throughout. In addition, the GI50 is > 100 µM (inactive) with K562; > 100 µM (inactive) in the assay on KM12; > 100 µM (inactive) in the assay on M14; > 100 µM (inactive) in the assay on M19-MEL; > 100 µM (inactive) in the assay with NCI-H522; > 96.2 µM (inactive) in the assay on OVCAR-4. Also, the GI50 in the assay on OVCAR-5 was > 100 µM (inactive); in the assay with SK-MEL-28, > 61.1 µM (inactive); in the assay on SK-MEL-2 it was > 100 µM (inactive); in the assay with SN12C it was > 100 µM (inactive); in the assay with SW-620, > 100 µM (inactive).
Consider `CC(C)N(C(=O)C12C3C4C5C3C1(C(=O)O)C5C42)C(C)C` (stereo not drawn), for which the GI50 with CAKI-1, in the assay on CCRF-CEM, with COLO 205, in the assay on EKVX, in the assay on HCT-116 and with IGROV-1 was > 100 µM (inactive) throughout. The GI50 in the assay with K562, in the assay with KM12, in the assay on M14, in the assay on M19-MEL, in the assay with NCI-H522 and in the assay on OVCAR-4 was > 100 µM (inactive) in each case. The GI50 in the assay with OVCAR-5, with SK-MEL-28, with SK-MEL-2, with SN12C and in the assay with SW-620 was > 100 µM (inactive) throughout.
`O=C(O/N=C1/CCCC/C1=C\c1ccccc1)c1ccc(Cl)cc1`: the GI50 in the assay on CAKI-1 is 84.5 µM (inactive); with CCRF-CEM it was > 100 µM (inactive); with COLO 205 it was > 100 µM (inactive); in the assay with EKVX, 42.1 µM (inactive); in the assay on HCT-116 it was > 100 µM (inactive); in the assay with IGROV-1, > 100 µM (inactive). The GI50 is > 100 µM (inactive) with K562; > 100 µM (inactive) in the assay with KM12; > 100 µM (inactive) with M14; > 100 µM (inactive) in the assay with M19-MEL; 23.3 µM (inactive) with NCI-H522; 53 µM (inactive) with OVCAR-4. In addition, the GI50 is 44.8 µM (inactive) with OVCAR-5; > 100 µM (inactive) in the assay on SK-MEL-28; > 100 µM (inactive) in the assay on SK-MEL-2; > 100 µM (inactive) in the assay with SN12C; > 100 µM (inactive) in the assay on SW-620.
For the compound `CC(=O)c1cc2c3c(c1)c1cc4c(cc1c(=O)n3CC2)OCO4`, the GI50 in the assay on CAKI-1 is 20.8 µM (inactive); in the assay with CCRF-CEM, 11.9 µM (inactive); in the assay with COLO 205, 29.6 µM (inactive); with EKVX, 46.2 µM (inactive); in the assay on HCT-116, 4.71 µM (inactive); in the assay on IGROV-1, 28.8 µM (inactive). Besides, the GI50 is 18.1 µM (inactive) with K562; 8.63 µM (inactive) in the assay on KM12; 59.7 µM (inactive) in the assay with M14; 34 µM (inactive) in the assay with M19-MEL; 7.21 µM (inactive) in the assay with NCI-H522; 25.8 µM (inactive) in the assay with OVCAR-4. For the same compound, the GI50 in the assay with OVCAR-5 is 78.7 µM (inactive); with SK-MEL-28 it was 65.3 µM (inactive); with SK-MEL-2 it was > 100 µM (inactive); with SN12C, 16.8 µM (inactive); in the assay with SW-620, 7.78 µM (inactive).
With `C=C1C(=O)C23C(O)C1CC[C@H]2C12CCCC(C)(COC(C)=O)[C@H]1[C@H](O)[C@]3(O)OC2` (stereo partly drawn), the GI50 with CAKI-1 was 1.16 µM (inactive); in the assay with CCRF-CEM, 0.211 µM (active); in the assay on COLO 205, 1.46 µM (inactive); in the assay on EKVX, 4.01 µM (inactive); in the assay on HCT-116, 1.06 µM (active); with IGROV-1, 2.08 µM (inactive). Also, the GI50 in the assay on K562 is 0.128 µM (active); in the assay with KM12 it was 2.37 µM (inactive); with M14, 1.1 µM (active); with M19-MEL, 2.01 µM (inactive); with NCI-H522, 0.285 µM (active); in the assay with OVCAR-4 it was 2.15 µM (inactive). The GI50 was 2.36 µM (inactive) with OVCAR-5; 1.88 µM (inactive) with PC-3; 1.14 µM (inactive) in the assay on SK-MEL-28; 1.85 µM (inactive) with SK-MEL-2; 1.71 µM (inactive) in the assay with SN12C; 0.519 µM (active) in the assay with SW-620. Besides, in the assay with T47D, the GI50 was 1.3 µM (inactive).
In the case of `Cc1ccc(NC(=O)C(=O)C2NC(=S)NC2=O)c([N+](=O)[O-])c1` (stereo not drawn), the GI50 is > 100 µM (inactive) in the assay on CAKI-1; > 100 µM (inactive) with CCRF-CEM; > 100 µM (inactive) with COLO 205; 57.3 µM (inactive) with EKVX; > 100 µM (inactive) in the assay with HCT-116; > 100 µM (inactive) in the assay on IGROV-1. Also, the GI50 in the assay with K562, in the assay with KM12, in the assay with M14, in the assay on M19-MEL, in the assay with NCI-H522 and with OVCAR-4 was > 100 µM (inactive) in each case. Besides, the GI50 in the assay with OVCAR-5, with SK-MEL-28, in the assay with SK-MEL-2, in the assay with SN12C and with SW-620 was > 100 µM (inactive) throughout.
Consider `O=C(/C(=C/c1ccccc1)c1ccccc1)N1c2ccccc2CC1c1c[nH]c2ccccc12` (stereo not drawn), for which the GI50 was 36.1 µM (inactive) in the assay on CAKI-1; 8.91 µM (inactive) in the assay with CCRF-CEM; 6.27 µM (inactive) in the assay with COLO 205; 25.2 µM (inactive) in the assay on EKVX; 5.51 µM (inactive) with HCT-116; > 100 µM (inactive) with IGROV-1. The GI50 in the assay on K562 is 5.05 µM (inactive); with KM12, 10.2 µM (inactive); with M14, 9.18 µM (inactive); with M19-MEL, 38.6 µM (inactive); in the assay on NCI-H522, 7.8 µM (inactive); in the assay with OVCAR-4, 37.8 µM (inactive). The GI50 with OVCAR-5 was 38.6 µM (inactive); in the assay with SK-MEL-28, > 100 µM (inactive); in the assay with SK-MEL-2, 6.03 µM (inactive); with SN12C, 22.2 µM (inactive); in the assay on SW-620, 59.2 µM (inactive).
